Laboratory results published in patent publication US20260008793A1, “IONIZABLE CATIONIC LIPIDS INCORPORATING SILICON” (ALDEXCHEM KFT., priority 2022, published 2026).

Tests used:
[1] = LNP size, PDI and zeta potential by Dynamic Light Scattering (Method A); type: physicochemical; settings: LNP formulated by Method A; for Zeta potential (mV): 1xPBS pH 7.4; for PDI / Size (nm): DLS; for Size (nm): Luciferase-mRNA loaded
Experimental: (§1) The synthesized lipids were tested in term of in vitro transfection efficacy and toxicity on HeLa cells. In order to perform the mentioned biological tests, appropriate LNPs had to be formulated from the synthesized lipids. The formulation technique was different in Method A and B. The particle size, PDI and zeta potential of resulting LNPs were determined by means of Dynamic Light Scattering technique (DLS). Prior to biological testing the encapsulation efficiency (EE) of the loaded LNPs was determined by using RiboGreen RNA assay. In case of Method A Luciferase-mRNA while in case of Method B GFP-mRNA was transfected into the cells. In parallel with the transfection experiments, toxicity of the investigated LNPs was determined, in case of Method A resazurin assay while in case of Method B MTT assay was used. In the case of some lipids, the apparent pKa in LNPs was determined by using TNS titration based on the method described: Angew Chem Int Ed Engl. 2012, 51 (34), 8529-8533, doi: 10.1002/anie.201203263).
• 1. If needed, prepare stock solutions by solving known amounts of lipid powder into an appropriate solvent. The recommended solvent is Ethanol and the recommended concentration is typically in the range 10-50 mM. Higher concentrations are preferred to allow flexibility on mRNA-LNP concentration. • 2. Remove the lipid stock solutions from the −20° C. freezer. For long-term storage, −80° C. is used. • 3. Check the vials for precipitation, DOPE (CAS #4004-05-1) (20 mM) and DSPE-PEG (CAS #474922-26-4) (5 mM) may need a 5-30 minute incubation step at 37° C. with intermittent vortexing to resuspend all contents. […] As a last resort, lipids may be heated to 50° C. to resuspend, time should be kept as short as possible to prevent oxidation or other modifying or degradative processes. • 4. Mix the lipids by vortexing for 2 minutes. • 5. […] Cooling the solution prevent excessive evaporation of ethanol or similar solvents upon opening. • 6. Meanwhile, thaw the RNA samples, including the latest SecNLuc control, by inserting the frozen tube in a room temperature aluminium block. • 7. Prepare for each LNP-formulation with identical mRNA component, an RNA master mix according to Table 1 below in a fresh tube. Use of a master mix allows more precise comparison of lipid formulations relative to each other. Split the master mix over a number of fresh tubes equal to the number of samples+controls. Each tube contains 375 μl of mRNA in 10 mM Citrate pH 4.0. • 8. Prepare for each LNP formulation with identical lipid composition a Lipid master mix according to Table 1 below in a fresh tube, exclude the lipid of interest. Use of a master mix allows more precise comparison of the novel ionizable lipid relative to each other. Split the master mix over a number of fresh tubes equal to the number of samples+controls. Each tube contains 65.5 μl of lipid master mix. • 9. Add the ionizable lipid of interest to the equally divide lipid master mix. Mix well by pipetting up and down. Label the tube according to the ionizable lipid used. • 10. Power on the ‘L 1 formulation machine’ (L 1 FM) and allow it to do a calibration of motor positions.
• 18. Fill a fresh syringe (C) through a blunt 18 G stainless steel needle with the previously prepared RNA mixture of step 6. The volume should be approximately […] of total formulation volume+25 μl (dead-volume). Make sure to remove all air bubbles by tapping. • 19. Fill a fresh syringe (D) through a blunt 18 G stainless steel needle with the Lipid master mix. The volume should be approximately 35% of total formulation volume+25 μl (dead-volume). Again, Make sure to remove all bubbles. • 20. Attach the syringes in the correct orientation, syringe A on the left and syringe B on the right • 21. Load the ‘Receiving station’ with appropriate sized collection containers (2 ml Eppendorf tubes). • 22. Press the microfluidic chip to the back of the machine with your thumb and hold, press the ‘Button 1’ (40 g). […]

[2] = system: HeLa cells; experiment: Transfection efficiency with Luciferase-mRNA, Nano-Glo assay (Method A); type: cell-based; settings: 100 ng Luciferase (SecNLuc) mRNA, 24 h, luminescence
Experimental: as §1
• 1. Prepare mRNA solution by adding 100 ng mRNA (SecNLuc, #P009024, RiboPro) to 5 μl Opti-MEM • a. multiply by number of wells, include different concentrations and add 10% extra • b. a standard set-up we use is 100 ng-50 ng-10 ng mRNA/well in triplicate, which would need 528 ng mRNA (includes 10% extra)
• 2. (If applicable) Prepare different concentrations in Opti-MEM (for instance 100/50/10 ng). • 3. Add 10 μl to each well and mix carefully by pipetting. • 4. Mix by swirling the plate horizontally at modest speed. Reverse in direction 3 times. • 5. Incubate for 24 hours (incubator).
This protocol is applied to measure luciferase activity for secreted NanoLuc and is based on the protocol by Promega (Nano-Glo® Luciferase Assay System #N1110-1150). The protocol is designed for a 384-wells plate, but volumes can be changed accordingly for other plates.
• 1. Plate cells (HeLa) in 96-well plate, grow until 80% confluent and transfect with SecNanoLuc mRNA and incubate for the desired period (24 h). • 2. After incubation, the translated protein is accumulated in the medium. Transfer medium to a new plate or tubes • 3. Transfer 12 μl of each sample to a black-walled, clear-bottom 384-well plate • a. Black-walled plates are important to prevent shine-through of luminescence from other wells; alternatively, multiple wells between samples can be left empty • 4. Set-up plate reader • 5. Prepare the desired amount of Nano-Glo® Luciferase Assay Reagent by combining one volume of Nano-Glo® Luciferase Assay Substrate with 50 volumes of Nano-Glo® Luciferase Assay Buffer • a. composition: 100 mM MES pH 6; 1 mM EDTA; 0.5% NP-50; 150 mM KCl; 1 mM DTT; 35 mM Thiourea • b. Briefly spin tubes containing substrate in a microcentrifuge before use • 6. Add and mix (by pipetting) 12 μl Nano-Glo® Luciferase Assay Reagent per well • a. Wait approximately 3 minutes before measuring luminescence. […] Measure luminescence in plate reader using standard protocol luciferase (this includes mixing sample in plate reader)

Row | SMILES | Zeta potential (mV) [1] | PDI [1] | Size (nm) [1] | Transfection* (Method A = 100 ng mRNA) [2]
1 | CCCCCCCCC(CCCCCC)C(=O)OCCCCCCN(CCCCO)CCCCCCOC(=O)C(CCCCCC)CCCCCCCC (stereo not drawn) [ALC-0315, reference compound] | −11.12 mV | 0.113 | 172.6 nm | 836793
2 | CCCCCCCC[Si](C)(C)OC(CCCCCCC)OCCCCCCN(CCCCO)CCCCCCOC(CCCCCCC)O[Si](C)(C)CCCCCCCC (stereo not drawn) [Example 102, 5-(6-((1-((dimethyl(octyl)silyl)oxy)octyl)oxy)hexyl)-13-heptyl-15,15-dimethyl-12,14-dioxa-5-aza-15-silatricosan-1-ol] | −3.4 mV | 0.06 | 212.9 nm | 129513
3 | CCCCCCCCCC(OCCCCCCN(CCCCO)CCCCCCOC(CCCCCCCCC)O[Si](C)(C)CCCCCC)O[Si](C)(C)CCCCCC (stereo not drawn) [Example 104, 5-(6-((1-((hexyldimethylsilyl)oxy)decyl)oxy)hexyl)-15,15-dimethyl-13-nonyl-12,14-dioxa-5-aza-15-silahenicosan-1-ol] | −13.26 mV | 0.043 | 184.4 nm | 27631.5
4 | CCCCCCCCOC(CCCCCN(CCCCO)CCCCCC(OCCCCCCCC)O[Si](C)(C)O[Si](C)(C)CCCCCCCC)O[Si](C)(C)O[Si](C)(C)CCCCCCCC (stereo not drawn) [Example 107, 4-(bis(6-(octyloxy)-6-((1,1,3,3-tetramethyl-3-octyldisiloxaneyl)oxy)hexyl)amino)butan-1-ol] | −11.69 mV | 0.186 | 152.1 nm | 3677.5
5 | CCCCCCCC[Si](C)(C)O[Si](C)(C)OC(CCCCCCC)OCCCCCCN(CCCCO)CCCCCCOC(CCCCCCC)O[Si](C)(C)O[Si](C)(C)CCCCCCCC (stereo not drawn) [Example 108, 13-heptyl-15,15,17,17-tetramethyl-5-(6-((1-((1,1,3,3-tetramethyl-3-octyldisiloxaneyl)oxy)octyl)oxy)hexyl)-12,14,16-trioxa-5-aza-15,17-disilapentacosan-1-ol] | −14.24 mV | 0.211 | 198.5 nm | 7926
6 | CCCCCCCCOC(CCCCCCC)O[Si](C)(C)CCCCCCN(CCCCO)CCCCCC[Si](C)(C)OC(CCCCCCC)OCCCCCCCC (stereo not drawn) [Example 113, 5-(6-(dimethyl((1-(octyloxy)octyl)oxy)silyl)hexyl)-14-heptyl-12,12-dimethyl-13,15-dioxa-5-aza-12-silatricosan-1-ol] | −5.00 mV | 0.11 | 174.6 nm | 200295
7 | CCCCCCCCSC(CCCCCCC)O[Si](C)(C)OCCCCCCN(CCCCO)CCCCCCO[Si](C)(C)OC(CCCCCCC)SCCCCCCCC (stereo not drawn) [Example 115, 15-heptyl-5-(10-heptyl-8,8-dimethyl-7,9-dioxa-11-thia-8-silanonadecyl)-13,13-dimethyl-12,14-dioxa-16-thia-5-aza-13-silatetracosan-1-ol] | 0.3 mV | 0.13 | 130.2 nm | 1135215
8 | CCCCCCCCOC(CCCCCN(CCCCCC(OCCCCCCCC)O[Si](C)(C)CCCCCCCC)CCC1CCCN1C)O[Si](C)(C)CCCCCCCC (stereo not drawn) [Example 116, 6-((dimethyl(octyl)silyl)oxy)-N-(6-((dimethyl(octyl)silyl)oxy)-6-(octyloxy)hexyl)-N-(2-(1-methylpyrrolidin-2-yl)ethyl)-6-(octyloxy)hexan-1-amine] | −14.17 mV | 0.092 | 189.8 nm | 118987
9 | CCCCCCCCOC(CCCCCN(CCCCCC(OCCCCCCCC)O[Si](C)(C)O[Si](C)(C)CCCCCCCC)CCC1CCCN1C)O[Si](C)(C)O[Si](C)(C)CCCCCCCC (stereo not drawn) [Example 118, N-(2-(1-methylpyrrolidin-2-yl)ethyl)-6-(octyloxy)-N-(6-(octyloxy)-6-((1,1,3,3-tetramethyl-3-octyldisiloxaneyl)oxy)hexyl)-6-((1,1,3,3-tetramethyl-3-octyldisiloxaneyl)oxy)hexan-1-amine] | −15.92 mV | 0.04 | 179.2 nm | 57119.5
10 | CCCCCCCC[Si](C)(C)OC(CCCCCCC)OCCCCCCN(CCCCCCOC(CCCCCCC)O[Si](C)(C)CCCCCCCC)CCC1CCCN1C (stereo not drawn) [Example 120, 6-((1-((dimethyl(octyl)silyl)oxy)octyl)oxy)-N-(6-((1-((dimethyl(octyl)silyl)oxy)octyl)oxy)hexyl)-N-(2-(1-methylpyrrolidin-2-yl)ethyl)hexan-1-amine] | −13.18 mV | 0.055 | 161.4 nm | 469598.5
11 | CCCCCCCCO[Si](C)(C)OC(CCCCCCC)OCCCCCCN(CCCCCCOC(CCCCCCC)O[Si](C)(C)OCCCCCCCC)CCC1CCCN1C (stereo not drawn) [Example 121, 8-heptyl-N-(8-heptyl-10,10-dimethyl-7,9,11-trioxa-10-silanonadecyl)-10,10-dimethyl-N-(2-(1-methylpyrrolidin-2-yl)ethyl)-7,9,11-trioxa-10-silanonadecan-1-amine] | −11.47 mV | 0.012 | 179.2 nm | 80788.5
12 | CCCCCCCCOC(CCCCCN(CCCCO)CCCCCCOC(=O)C(CCCCCC)CCCCCCCC)O[Si](C)(C)CCCCCCCC (stereo not drawn) [Example 128, 6-((6-((dimethyl(octyl)silyl)oxy)-6-(octyloxy)hexyl)(4-hydroxybutyl)amino)hexyl 2-hexyldecanoate] | −14.77 mV | 0.107 | 228.6 nm | 647195.5
